Experimental data published in US10596193B2, “Copper (I) complexes with glycine, pyruvate, and succinate” (C LAB PHARMA INTERNATIONAL, S.A., priority 2013, dated 2020).

Tested on: lymphoblasts from autistic donors with mitochondrial dysfunction (A)
Settings: 500 μM copper (I) glycinate, measured by oxygen consumption rate, vs cells without the copper (I) complex, FIG. 17 panel B
Experimental: ATP-linked respiration, proton leak, maximal respiratory capacity, and reserve capacity were determined as measured by the cells' oxygen consumption rate.

Structure (SMILES): NCC(=O)[O-].[Cu+] [copper (I) glycinate]
- proton leak: significantly reduced proton leak
